Where two headings read alike, the source gives them in different places. Non-standard residues stand in square brackets, D forms with d. Residues, ends and D or L forms follow the SMILES beside them. *: point of attachment. Bta = N[C@@H](Cc1csc2ccccc12)C(=O)O; NH(4-Me-benzyl) = Cc1ccc(CN*)cc1; NMeF = CN[C@@H](Cc1ccccc1)C(=O)O; hPhe = N[C@@H](CCc1ccccc1)C(=O)O; Cit = NC(=O)NCCC[C@H](N)C(=O)O; Pip = O=C(O)[C@@H]1CCCCN1; Piperidide = C1CCN(*)CC1; Acryloyl = C=CC(=O)*; NHcBu = C1CC(N*)C1; X6 = CC(Cl)C(=O)*; ClAc = O=C(CCl)*

The results in this text go back to patent US20210238225A1, “PEPTIDOMIMETIC INHIBITORS OF THE PEPTIDYL-PROLYL CIS/TRANS ISOMERASE (PIN1)” (DANA-FARBER CANCER INSTITUTE, INC., priority 2018, published 2021).

This assay has as its target Pin1 (GST-Pin1) (Homo sapiens, UniProt Q13526). The assay can be described thus: Fluorescence polarization (FP) assay, binding to Pin1. To be noted: competition with fluorescein-labeled peptide probe, 12 hours pre-incubation at 4° C., Kenakin Ki equation. (In fluorescence polarisation assays a small probe gives low polarisation when free and higher when bound to something large.)

Chain of Pin1 (GST-Pin1) (Q13526 whole entry): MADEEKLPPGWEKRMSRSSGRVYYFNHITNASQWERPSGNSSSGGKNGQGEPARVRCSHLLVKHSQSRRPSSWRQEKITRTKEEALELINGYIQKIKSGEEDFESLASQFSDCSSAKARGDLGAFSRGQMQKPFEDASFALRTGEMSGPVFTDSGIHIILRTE

A word on the Ki: it is a dissociation constant, usually derived from enzyme kinetics or from competition with a known ligand. `Cc1ccc(CNC(=O)[C@H](CCCNC(N)=O)NC(=O)[C@H](Cc2c[nH]c3ccccc23)NC(=O)[C@@H]2CCCCN2C(=O)[C@H](Cc2ccccc2)NC(=O)C(C)Cl)cc1` (stereo partly drawn) [Compound 11-34, (2S)—N—((S)-3-(1H-indol-3-yl)-1-(((S)-1-((4-methylbenzyl)amino)-1-oxo-5-ureidopentan-2-yl)amino)-1-oxopropan-2-yl)-1-((2-chloropropanoyl)-L-phenylalanyl)piperidine-2-carboxamide] (X6-F[Pip]W[Cit]-{NH(4-Me-benzyl)}): for the setting “read-out: Ki, μM (FP Assay)”, the Ki was above 10 µM.

As to `C=CC(=O)N[C@@H](Cc1ccccc1)C(=O)N1CCCC[C@H]1C(=O)N[C@@H](Cc1c[nH]c2ccccc12)C(=O)N[C@@H](CCCNC(N)=O)C(=O)NCc1ccc(C)cc1` [Compound 11-35, (S)—N—((S)-3-(1H-indol-3-yl)-1-(((S)-1-((4-methylbenzyl)amino)-1-oxo-5-ureidopentan-2-yl)amino)-1-oxopropan-2-yl)-1-(acryloyl-L-phenylalanyl)piperidine-2-carboxamide] (Acryloyl-F[Pip]W[Cit]-{NH(4-Me-benzyl)}), the Ki (read-out: Ki, μM (FP Assay)) was above 10 µM.

With `CC(=O)N[C@@H](Cc1ccccc1)C(=O)N1CCCC[C@H]1C(=O)N[C@@H](Cc1c[nH]c2ccccc12)C(=O)N[C@@H](CCCNC(N)=O)C(=O)NCc1ccc(C)cc1` [Compound 11-36, (S)—N—((S)-3-(1H-Indol-3-yl)-1-(((S)-1-((4-methylbenzyl)amino)-1-oxo-5-ureidopentan-2-yl)amino)-1-oxopropan-2-yl)-1-(acetyl-L-phenylalanyl)piperidine-2-carboxamide] (Ac-F[Pip]W[Cit]-{NH(4-Me-benzyl)}), the inhibition constant Ki (read-out: Ki, μM (FP Assay)) was above 10 µM. Still for that read-out and setting: the result for `NC(=O)NCCC[C@H](NC(=O)[C@H](Cc1c[nH]c2ccccc12)NC(=O)[C@@H]1CCCCN1C(=O)[C@H](Cc1ccccc1)NC(=O)CCl)C(=O)NC1CCC1` [Compound 11-37, (S)-1-((2-Chloroacetyl)-L-phenylalanyl)-N—((S)-1-(((S)-1-(cyclobutylamino)-1-oxo-5-ureidopentan-2-yl)amino)-3-(1H-indol-3-yl)-1-oxopropan-2-yl)piperidine-2-carboxamide] (ClAc-F[Pip]W[Cit]-NHcBu) reads 0.026 µM.

Molecule `NC(=O)NCCC[C@H](NC(=O)[C@H](Cc1c[nH]c2ccccc12)NC(=O)[C@@H]1CCCCN1C(=O)[C@H](CCc1ccccc1)NC(=O)CCl)C(=O)N1CCCCC1` [Compound 11-40, (S)—N—((S)-3-(1H-Indol-3-yl)-1-oxo-1-(((S)-1-oxo-1-(piperidin-1-yl)-5-ureidopentan-2-yl)amino)propan-2-yl)-1-((S)-2-(2-chloroacetamido)-4-phenylbutanoyl)piperidine-2-carboxamide] (ClAc-[hPhe][Pip]W[Cit]-Piperidide) showed a Ki (Ki, μM (FP Assay)) of 0.087 µM.

As to `O=C(CCl)N[C@@H](Cc1ccccc1)C(=O)N1CCCC[C@H]1C(=O)N[C@@H](Cc1c[nH]c2ccccc12)C(=O)N[C@@H](Cc1ccccc1)C(=O)N1CCCCC1` [Compound 11-41, (S)—N—((S)-3-(1H-Indol-3-yl)-1-oxo-1-(((S)-1-oxo-3-phenyl-1-(piperidin-1-yl)propan-2-yl)amino)propan-2-yl)-1-((2-chloroacetyl)-L-phenylalanyl)piperidine-2-carboxamide] (ClAc-F[Pip]WF-Piperidide), the Ki (read-out: Ki, μM (FP Assay)) stood at 0.151 µM.

As to `CN(C(=O)CCl)[C@@H](Cc1ccccc1)C(=O)N1CCCC[C@H]1C(=O)N[C@@H](Cc1csc2ccccc12)C(=O)N[C@@H](CCCNC(N)=O)C(=O)N1CCCCC1` [Compound 11-42, (S)—N—((S)-3-(Benzo[6]thiophen-3-yl)-1-oxo-1-(((S)-1-oxo-1-(piperidin-1-yl)-5-ureidopentan-2-yl)amino)propan-2-yl)-1-(N-(2-chloroacetyl)-N-methyl-L-phenylalanyl)piperidine-2-carboxamide] (ClAc-[NMeF][Pip][Bta][Cit]-Piperidide), the Ki (read-out: Ki, μM (FP Assay)) came out at 0.109 µM.
